Reference: ChEMBL document CHEMBL5226304, “Fused-azepinones: Emerging scaffolds of medicinal importance” (Eur J Med Chem, 2021)
Values after ≈ are worked out from the molar mass of the structure shown.

Target: Cyclin-dependent kinase 1/cyclin B (Homo sapiens, UniProt P06493)
Experiment: Inhibition of CDK1/Cyclin B (unknown origin) in presence of gamma32P-ATP by scintillation counter analysis
Assay type: protein-complex assay

| Structure (SMILES) | IC50 [nM] |
| --- | --- |
| NC1=NC(=O)/C(=C2\CCNC(=O)c3[nH]c4ccc(Br)cc4c32)N1 | 1000 |
| O=C1Cc2c([nH]c3ccncc23)-c2ccccc2N1 | 2100 |
| O=C1NC(=O)/C(=C2\CCNC(=O)c3[nH]c(Br)cc32)N1 [SPONGIACIDIN D] | 4000 |
| CC(=O)NC1=NC(=O)/C(=C2\CCNC(=O)c3[nH]c(Br)c(Br)c32)N1 | 1500 |
| NC1=NC(=O)/C(=C2\CCNC(=O)c3[nH]c(Cl)c(Cl)c32)N1 | 220 |
| N#Cc1ccc2[nH]c3c(c2c1)CC(=O)Nc1cccnc1-3 [CAZPAULLONE] | 500 |
| NC1=NC(=O)/C(=C2\CCNC(=O)c3[nH]c(Br)c(Br)c32)N1 | 530 |
| CCNC1=NC(=O)/C(=C2\CCNC(=O)c3[nH]c(Br)c(Br)c32)N1 | > 10000 |
| NC1=NC(=O)/C(=C2\CCNC(=O)c3[nH]c4ccc(F)cc4c32)N1 | 550 |
| NC1=NC(=O)/C(=C2\CCNC(=O)c3[nH]cc(Br)c32)N1 | 1500 |
| NC1=NC(=O)/C(=C2\CCNC(=O)c3[nH]c4ccc(Cl)cc4c32)N1 | 2300 |

Target: Cyclin-dependent kinase 2/cyclin A (Homo sapiens, UniProt P24941)
Experiment: Inhibition of CDK2/Cyclin A (unknown origin)
Assay type: protein-complex assay

| Structure (SMILES) | IC50 [nM] |
| --- | --- |
| N#Cc1ccc2[nH]c3c(c2c1)CC(=O)Nc1cccnc1-3 [CAZPAULLONE] | 500 |

Target: Protein kinase C (PKC)
Experiment: Inhibition of Protein kinase C (unknown origin)
Assay type: protein assay, Homo sapiens

| Structure (SMILES) | IC50 [nM] |
| --- | --- |
| O=C1NC(=O)/C(=C2\CCNC(=O)c3[nH]ccc32)N1 [SPONGIACIDIN C] | 22000 |
| O=C1NC(=O)/C(=C2\CCNC(=O)c3[nH]c(Br)cc32)N1 [SPONGIACIDIN D] | 9000 |

Target: Casein kinase I
Experiment: Inhibition of CK1 (unknown origin)
Assay type: protein assay, Homo sapiens

| Structure (SMILES) | IC50 [nM] |
| --- | --- |
| O=C1Cc2c([nH]c3ccncc23)-c2ccccc2N1 | > 10000 |
| O=C1NC(=O)/C(=C2\CCNC(=O)c3[nH]c(Br)cc32)N1 [SPONGIACIDIN D] | 4500 |

Target: Cyclin-dependent kinase 5/CDK5 activator 1 (Homo sapiens, UniProt Q00535)
Experiment: Inhibition of CDK5/p25 (unknown origin)
Assay type: protein-complex assay

Chain of Cyclin-dependent kinase 5/CDK5 activator 1 (Q00535 whole entry): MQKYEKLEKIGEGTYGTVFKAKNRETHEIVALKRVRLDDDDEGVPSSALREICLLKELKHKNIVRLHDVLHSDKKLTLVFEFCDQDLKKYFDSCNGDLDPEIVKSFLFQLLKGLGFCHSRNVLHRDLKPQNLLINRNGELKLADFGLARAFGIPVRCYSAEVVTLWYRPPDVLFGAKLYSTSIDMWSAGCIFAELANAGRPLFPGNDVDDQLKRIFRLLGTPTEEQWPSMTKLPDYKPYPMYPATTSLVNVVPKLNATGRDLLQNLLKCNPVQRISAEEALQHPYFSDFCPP
Chain of Cyclin-dependent kinase 5/CDK5 activator 1 (Q15078 whole entry, further chain): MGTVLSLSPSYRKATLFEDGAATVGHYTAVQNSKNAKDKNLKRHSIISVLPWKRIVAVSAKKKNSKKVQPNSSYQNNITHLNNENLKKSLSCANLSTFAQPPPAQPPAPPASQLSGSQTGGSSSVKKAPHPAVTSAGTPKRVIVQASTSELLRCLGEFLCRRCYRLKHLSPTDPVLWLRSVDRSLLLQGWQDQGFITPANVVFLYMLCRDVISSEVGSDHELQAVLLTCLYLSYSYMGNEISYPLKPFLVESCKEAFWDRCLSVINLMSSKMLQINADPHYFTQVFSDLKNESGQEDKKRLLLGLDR

| Structure (SMILES) | IC50 [nM] |
| --- | --- |
| O=C1NCC/C(=N\Nc2ccccn2)c2c1[nH]c(Br)c2Br | 10400 |
| NC1=NC(=O)/C(=C2\CCNC(=O)c3[nH]c4ccc(Br)cc4c32)N1 | 213 |
| O=C1NCC/C(=N\Nc2cccnc2Cl)c2c1[nH]c1ccc(F)cc21 | 12 |
| O=C1NC(=O)/C(=C2\CCNC(=O)c3[nH]c(Br)cc32)N1 [SPONGIACIDIN D] | 7000 |
| CC(=O)NC1=NC(=O)/C(=C2\CCNC(=O)c3[nH]c(Br)c(Br)c32)N1 | 533 |
| NC1=NC(=O)/C(=C2\CCNC(=O)c3[nH]c(Cl)c(Cl)c32)N1 | 62 |
| NC1=NC(=O)/C(=C2\CCNC(=O)c3[nH]c(Br)c(Br)c32)N1 | 56 |
| O=C1NCC/C(=N\Nc2ccc(Cl)cn2)c2c1[nH]c1ccc(F)cc21 | 75 |
| CCNC1=NC(=O)/C(=C2\CCNC(=O)c3[nH]c(Br)c(Br)c32)N1 | 9120 |
| NC1=NC(=O)/C(=C2\CCNC(=O)c3[nH]c4ccc(F)cc4c32)N1 | 177 |
| NC1=NC(=O)/C(=C2\CCNC(=O)c3[nH]cc(Br)c32)N1 | 79 |
| NC1=NC(=O)/C(=C2\CCNC(=O)c3[nH]c4ccc(Cl)cc4c32)N1 | 191 |
| O=C1NCC/C(=N\Nc2cccnc2)c2c1[nH]c1ccc(F)cc21 | 12 |
| O=C1Cc2c([nH]c3ccc(Br)cc23)-c2sccc2N1 | 120 |

System: L5178Y
Experiment: Cytotoxicity against mouse L5178Y cells by MTT assay
Assay type: functional, cell-based

| Structure (SMILES) | EC50 [µg/mL] |
| --- | --- |
| Nc1ncc2c(n1)CNC(=O)c1[nH]c(Br)c(Br)c1-2 | 9 (≈ 24.1 µM) |
| Nc1ncc(C2=CCNC(=O)c3[nH]c(Br)c(Br)c32)[nH]1 [STEVENSINE] | 3.5 (≈ 9.04 µM) |

System: KB 3-1
Experiment: Cytotoxicity against human KB-3-1 cells by MTT assay
Assay type: functional, cell-based

| Structure (SMILES) | IC50 [nM] |
| --- | --- |
| O=C1NCCCc2ccccc2-c2c1[nH]c1ccccc21 | 8000 |
| O=c1[nH]c2ccccc2c2c1[nH]c1ccccc12 | 6500 |

Species on record: Homo sapiens
Experiment: Selectivity ratio of IC50 for Chk1 (unknown origin) to IC50 for (unknown origin)

| Structure (SMILES) | Ratio IC50 |
| --- | --- |
| CNC1=NC(=O)/C(=C2\CCNC(=O)c3[nH]c(-c4ccccc4)cc32)N1 | 38 |
| NC1=NC(=O)/C(=C2\CCNC(=O)c3[nH]c(-c4ccccc4)cc32)N1 | 66 |
| O=C1N=C(NCc2ccccc2)N/C1=C1/CCNC(=O)c2[nH]c(-c3ccccc3)cc21 | 32 |
| COc1ccc(-c2cc3c([nH]2)C(=O)NCC/C3=C2/NC(N)=NC2=O)cc1OC | 111 |

System: 786-0
Experiment: Antitumor activity against human 786-0 cells
Assay type: functional

| Structure (SMILES) | GI50 [nM] |
| --- | --- |
| O=C1Cc2c(-c3ccccc3)cc(-c3ccco3)nc2-c2ccccc2N1 | 6600 |
| O=C1Cc2c(-c3ccco3)cc(-c3ccccc3)nc2-c2ccccc2N1 | 5500 |
| O=C1Cc2c(-c3ccccc3)cc(-c3ccc(Cl)cc3)nc2-c2ccccc2N1 | 1700 |

Target: Integrin alpha-V/beta-3 (Homo sapiens, UniProt P05106+P06756)
Experiment: Antagonist activity against human integrin alphaVbeta3 expressed in CHO-K1 cells measured after 4 hrs by Cell adhesion assay
Assay type: cell-based

Chain of Integrin alpha-V/beta-3 (P05106 27-788 limits assumed): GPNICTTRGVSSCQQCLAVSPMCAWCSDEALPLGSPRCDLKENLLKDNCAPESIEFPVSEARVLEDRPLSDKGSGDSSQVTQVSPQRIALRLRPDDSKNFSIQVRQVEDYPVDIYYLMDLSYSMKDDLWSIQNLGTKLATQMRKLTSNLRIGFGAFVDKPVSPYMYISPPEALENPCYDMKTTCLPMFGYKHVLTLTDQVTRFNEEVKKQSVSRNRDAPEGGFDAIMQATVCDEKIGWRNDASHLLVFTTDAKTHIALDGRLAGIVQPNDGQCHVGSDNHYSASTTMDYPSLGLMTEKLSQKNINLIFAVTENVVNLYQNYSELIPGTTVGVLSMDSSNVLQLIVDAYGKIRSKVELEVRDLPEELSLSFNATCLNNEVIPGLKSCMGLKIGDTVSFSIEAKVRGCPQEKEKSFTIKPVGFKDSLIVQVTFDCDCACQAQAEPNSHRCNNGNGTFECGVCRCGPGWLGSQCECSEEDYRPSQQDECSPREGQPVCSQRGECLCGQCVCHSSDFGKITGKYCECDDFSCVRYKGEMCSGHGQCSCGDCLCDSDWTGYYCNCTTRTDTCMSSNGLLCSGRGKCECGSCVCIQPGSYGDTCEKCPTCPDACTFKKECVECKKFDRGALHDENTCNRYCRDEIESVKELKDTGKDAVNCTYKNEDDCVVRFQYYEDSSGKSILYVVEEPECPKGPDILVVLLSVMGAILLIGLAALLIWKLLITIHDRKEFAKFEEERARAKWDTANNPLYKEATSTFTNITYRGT
Chain of Integrin alpha-V/beta-3 (P06756 31-889 limits assumed): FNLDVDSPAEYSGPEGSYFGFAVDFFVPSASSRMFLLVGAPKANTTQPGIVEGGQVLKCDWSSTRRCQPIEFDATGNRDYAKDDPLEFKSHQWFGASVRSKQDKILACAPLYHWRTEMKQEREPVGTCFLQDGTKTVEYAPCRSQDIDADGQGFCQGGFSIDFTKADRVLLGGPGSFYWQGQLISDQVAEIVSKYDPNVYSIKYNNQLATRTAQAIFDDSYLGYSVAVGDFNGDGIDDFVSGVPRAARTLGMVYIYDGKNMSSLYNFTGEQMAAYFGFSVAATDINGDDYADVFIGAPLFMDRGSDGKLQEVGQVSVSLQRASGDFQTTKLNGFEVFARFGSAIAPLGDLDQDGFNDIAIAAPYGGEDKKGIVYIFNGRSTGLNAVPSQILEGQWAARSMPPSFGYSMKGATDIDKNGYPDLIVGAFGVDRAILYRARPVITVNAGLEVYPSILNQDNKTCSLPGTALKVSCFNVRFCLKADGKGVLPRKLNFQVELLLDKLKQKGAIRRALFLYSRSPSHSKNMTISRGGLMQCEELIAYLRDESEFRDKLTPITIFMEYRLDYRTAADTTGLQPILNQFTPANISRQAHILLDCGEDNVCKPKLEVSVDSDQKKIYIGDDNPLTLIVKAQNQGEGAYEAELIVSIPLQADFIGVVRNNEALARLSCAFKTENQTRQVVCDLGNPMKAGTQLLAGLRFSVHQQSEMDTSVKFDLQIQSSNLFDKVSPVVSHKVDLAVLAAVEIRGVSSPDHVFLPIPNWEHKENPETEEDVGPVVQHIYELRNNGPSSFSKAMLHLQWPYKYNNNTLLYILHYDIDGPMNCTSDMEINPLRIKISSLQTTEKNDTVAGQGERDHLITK
Chain of Integrin alpha-V/beta-3 (P06756 891-1048 limits assumed): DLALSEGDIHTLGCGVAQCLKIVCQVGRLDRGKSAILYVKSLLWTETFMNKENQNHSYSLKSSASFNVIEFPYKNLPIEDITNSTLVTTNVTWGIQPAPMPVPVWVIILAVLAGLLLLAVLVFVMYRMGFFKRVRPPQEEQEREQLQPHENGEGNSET

| Structure (SMILES) | IC50 [nM] |
| --- | --- |
| O=C(O)CC1CCC(=O)N(CC(=O)NC[C@H]2CC[C@H](Nc3nc4ccccc4[nH]3)CC2)c2ccccc21 (stereo not given in full) | 0.04 |
| COc1ccc2c(c1)C(CC(=O)O)CCC(=O)N2CC(=O)NC[C@H]1CC[C@H](Nc2nc3ccccc3[nH]2)CC1 (stereo not given in full) | 0.26 |
| O=C(O)CC1CCC(=O)N(CC(=O)NCc2ccc(Nc3nc4ccccc4[nH]3)cc2)c2ccccc21 (stereo not given) | 0.5 |

System: MOLM-13
Experiment: Antiproliferative activity against human MOLM-13 cells assessed as inhibition of proliferation measured after 96 hrs by alamerBlue assay
Assay type: functional, cell-based

| Structure (SMILES) | IC50 [nM] |
| --- | --- |
| Cc1nnc2n1-c1ccccc1C(c1ccc(Cl)cc1)=C[C@@H]2CC(=O)Nc1ccc2c(c1)NC(=O)C2 | 170 |
| CCOC(=O)C[C@H]1C=C(c2ccc(Cl)cc2)c2ccccc2-n2c(C)nnc21 | 120 |
| Cc1nnc(C[C@H]2C=C(c3ccc(Cl)cc3)c3ccccc3-n3c(C)nnc32)o1 | 120 |

System: LAPC4
Experiment: Antiproliferative activity against human LAPC4 cells assessed as inhibition of proliferation measured after 96 hrs by alamerBlue assay
Assay type: functional, cell-based

| Structure (SMILES) | IC50 [nM] |
| --- | --- |
| Cc1nnc2n1-c1ccccc1C(c1ccc(Cl)cc1)=C[C@@H]2CC(=O)Nc1ccc2c(c1)NC(=O)C2 | 80 |
| CCOC(=O)C[C@H]1C=C(c2ccc(Cl)cc2)c2ccccc2-n2c(C)nnc21 | 80 |
| Cc1nnc(C[C@H]2C=C(c3ccc(Cl)cc3)c3ccccc3-n3c(C)nnc32)o1 | 40 |
